Test results: ChEMBL document CHEMBL4507276 (2021)

Assays:
[1] = system: Tyrosine-protein kinase ABL1 (Homo sapiens), P00519 [F317I]; conditions: Compound concentration 1000.0 nM
[2] = target: Cyclin-dependent kinase 8 (Homo sapiens) (UniProt P49336); conditions: Compound concentration 1000.0 nM
[3] = target: Citron Rho-interacting kinase (Homo sapiens) (UniProt O14578); conditions: Compound concentration 1000.0 nM
[4] = target: Dual specificity protein kinase CLK1 (Homo sapiens) (UniProt P49759); conditions: Compound concentration 1000.0 nM
[5] = target: Casein kinase I isoform gamma-3 (Homo sapiens) (UniProt Q9Y6M4); conditions: Compound concentration 1000.0 nM
[6] = target: Serine/threonine-protein kinase DCLK1 (Homo sapiens) (UniProt O15075); conditions: Compound concentration 1000.0 nM
[7] = target: Dual specificity tyrosine-phosphorylation-regulated kinase 1A (Homo sapiens) (UniProt Q13627); conditions: Compound concentration 1000.0 nM
[8] = target: Ephrin type-A receptor 3 (Homo sapiens) (UniProt P29320); conditions: Compound concentration 1000.0 nM
[9] = target: Receptor-type tyrosine-protein kinase FLT3 (Homo sapiens) (UniProt P36888); conditions: Compound concentration 1000.0 nM
[10] = target: Tyrosine-protein kinase Fyn (Homo sapiens) (UniProt P06241); conditions: Compound concentration 1000.0 nM
[11] = target: Insulin-like growth factor 1 receptor (Homo sapiens) (UniProt P08069); conditions: Compound concentration 1000.0 nM
[12] = target: T1, Interleukin-1 receptor-associated kinase 4 (Homo sapiens) (UniProt Q9NWZ3); conditions: Compound concentration 1000.0 nM
T1 sequence (whole entry): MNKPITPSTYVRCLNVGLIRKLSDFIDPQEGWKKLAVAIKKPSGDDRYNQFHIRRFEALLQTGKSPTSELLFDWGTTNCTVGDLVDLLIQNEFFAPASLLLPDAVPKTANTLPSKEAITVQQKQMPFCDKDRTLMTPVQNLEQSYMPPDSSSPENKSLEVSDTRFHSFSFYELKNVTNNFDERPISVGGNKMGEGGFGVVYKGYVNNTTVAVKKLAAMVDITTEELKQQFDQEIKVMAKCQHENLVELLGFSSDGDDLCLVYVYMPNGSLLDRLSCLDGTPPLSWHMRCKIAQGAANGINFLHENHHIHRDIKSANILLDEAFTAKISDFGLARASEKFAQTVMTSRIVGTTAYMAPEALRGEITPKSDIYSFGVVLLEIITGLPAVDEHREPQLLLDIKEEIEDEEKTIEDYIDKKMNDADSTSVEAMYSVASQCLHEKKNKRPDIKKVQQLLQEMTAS

[13] = target: Mitogen-activated protein kinase kinase kinase 9 (Homo sapiens) (UniProt P80192); conditions: Compound concentration 1000.0 nM
[14] = target: Serine/threonine-protein kinase Nek5 (Homo sapiens) (UniProt Q6P3R8); conditions: Compound concentration 1000.0 nM
[15] = target: Serine/threonine-protein kinase OSR1 (Homo sapiens) (UniProt O95747); conditions: Compound concentration 1000.0 nM
[16] = target: Phosphatidylinositol 4,5-bisphosphate 3-kinase catalytic subunit alpha isoform (Homo sapiens) (UniProt P42336); conditions: Compound concentration 1000.0 nM
[17] = system: Proto-oncogene tyrosine-protein kinase receptor Ret (Homo sapiens), P07949 [M918T]; conditions: Compound concentration 1000.0 nM
[18] = target: Ribosomal protein S6 kinase alpha-1 (Homo sapiens) (UniProt Q15418); conditions: Compound concentration 1000.0 nM
[19] = target: Ribosomal protein S6 kinase alpha-2 (Homo sapiens) (UniProt Q15349); conditions: Compound concentration 1000.0 nM
[20] = target: Ribosomal protein S6 kinase alpha-6 (Homo sapiens) (UniProt Q9UK32); conditions: Compound concentration 1000.0 nM
[21] = target: Uncharacterized serine/threonine-protein kinase SBK3 (Homo sapiens) (UniProt P0C264); conditions: Compound concentration 1000.0 nM
[22] = target: Serine/threonine-protein kinase SIK2 (Homo sapiens) (UniProt Q9H0K1); conditions: Compound concentration 1000.0 nM
[23] = target: Serine/threonine-protein kinase ULK3 (Homo sapiens) (UniProt Q6PHR2); conditions: Compound concentration 1000.0 nM
[24] = target: Wee1-like protein kinase 2 (Homo sapiens) (UniProt P0C1S8); conditions: Compound concentration 1000.0 nM
[25] = target: Serine/threonine-protein kinase WNK4 (Homo sapiens) (UniProt Q96J92); conditions: Compound concentration 1000.0 nM
[26] = target: T2, Muscarinic acetylcholine receptor M2 (Homo sapiens) (UniProt P08172); conditions: Compound concentration 10.0 uM
T2 sequence (whole entry): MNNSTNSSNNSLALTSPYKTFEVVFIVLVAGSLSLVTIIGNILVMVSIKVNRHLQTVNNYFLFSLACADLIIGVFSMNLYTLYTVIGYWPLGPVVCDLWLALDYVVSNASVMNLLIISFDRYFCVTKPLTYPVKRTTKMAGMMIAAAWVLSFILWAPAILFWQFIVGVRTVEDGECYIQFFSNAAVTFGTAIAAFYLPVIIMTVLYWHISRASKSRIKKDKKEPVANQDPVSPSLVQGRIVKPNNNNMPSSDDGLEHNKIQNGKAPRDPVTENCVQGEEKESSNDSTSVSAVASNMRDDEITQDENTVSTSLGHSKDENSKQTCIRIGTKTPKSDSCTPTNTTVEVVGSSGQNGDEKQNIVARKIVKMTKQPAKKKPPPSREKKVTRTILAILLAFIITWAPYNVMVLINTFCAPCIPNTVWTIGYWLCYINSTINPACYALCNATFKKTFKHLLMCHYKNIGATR

[27] = organism: Rattus norvegicus; conditions: Compound concentration 10.0 uM

Chain of Tyrosine-protein kinase ABL1 (Homo sapiens), P00519 [F317I] (P00519 whole entry F317I): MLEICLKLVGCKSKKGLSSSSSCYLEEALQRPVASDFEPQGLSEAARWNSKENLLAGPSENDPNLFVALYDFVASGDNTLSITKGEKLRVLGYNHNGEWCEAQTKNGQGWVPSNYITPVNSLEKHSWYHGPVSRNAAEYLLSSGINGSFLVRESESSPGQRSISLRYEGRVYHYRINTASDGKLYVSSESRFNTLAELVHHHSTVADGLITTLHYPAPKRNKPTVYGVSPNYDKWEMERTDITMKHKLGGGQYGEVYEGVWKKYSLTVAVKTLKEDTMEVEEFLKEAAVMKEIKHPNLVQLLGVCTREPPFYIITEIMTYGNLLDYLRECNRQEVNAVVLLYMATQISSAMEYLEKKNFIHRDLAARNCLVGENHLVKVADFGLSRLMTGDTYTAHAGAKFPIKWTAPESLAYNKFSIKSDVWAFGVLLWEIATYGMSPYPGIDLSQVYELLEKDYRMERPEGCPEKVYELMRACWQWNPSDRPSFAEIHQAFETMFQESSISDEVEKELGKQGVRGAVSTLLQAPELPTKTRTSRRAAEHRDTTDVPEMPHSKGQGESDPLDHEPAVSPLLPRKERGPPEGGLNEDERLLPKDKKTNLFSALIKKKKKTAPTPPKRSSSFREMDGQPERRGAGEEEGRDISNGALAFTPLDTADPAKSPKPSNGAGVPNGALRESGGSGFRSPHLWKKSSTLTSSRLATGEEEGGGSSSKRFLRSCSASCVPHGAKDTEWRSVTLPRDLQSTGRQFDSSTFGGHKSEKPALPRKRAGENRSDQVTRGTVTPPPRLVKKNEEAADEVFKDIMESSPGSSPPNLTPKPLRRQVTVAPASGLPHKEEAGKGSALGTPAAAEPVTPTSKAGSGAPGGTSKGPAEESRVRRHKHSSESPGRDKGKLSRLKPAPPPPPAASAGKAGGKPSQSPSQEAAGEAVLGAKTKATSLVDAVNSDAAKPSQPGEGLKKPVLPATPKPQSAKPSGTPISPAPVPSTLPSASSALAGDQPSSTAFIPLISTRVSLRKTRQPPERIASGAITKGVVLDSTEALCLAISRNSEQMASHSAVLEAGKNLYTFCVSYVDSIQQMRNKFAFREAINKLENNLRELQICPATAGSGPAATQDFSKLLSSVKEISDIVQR
Chain of Phosphatidylinositol 4,5-bisphosphate 3-kinase catalytic subunit alpha isoform (Homo sapiens) (P42336 whole entry, canonical isoform): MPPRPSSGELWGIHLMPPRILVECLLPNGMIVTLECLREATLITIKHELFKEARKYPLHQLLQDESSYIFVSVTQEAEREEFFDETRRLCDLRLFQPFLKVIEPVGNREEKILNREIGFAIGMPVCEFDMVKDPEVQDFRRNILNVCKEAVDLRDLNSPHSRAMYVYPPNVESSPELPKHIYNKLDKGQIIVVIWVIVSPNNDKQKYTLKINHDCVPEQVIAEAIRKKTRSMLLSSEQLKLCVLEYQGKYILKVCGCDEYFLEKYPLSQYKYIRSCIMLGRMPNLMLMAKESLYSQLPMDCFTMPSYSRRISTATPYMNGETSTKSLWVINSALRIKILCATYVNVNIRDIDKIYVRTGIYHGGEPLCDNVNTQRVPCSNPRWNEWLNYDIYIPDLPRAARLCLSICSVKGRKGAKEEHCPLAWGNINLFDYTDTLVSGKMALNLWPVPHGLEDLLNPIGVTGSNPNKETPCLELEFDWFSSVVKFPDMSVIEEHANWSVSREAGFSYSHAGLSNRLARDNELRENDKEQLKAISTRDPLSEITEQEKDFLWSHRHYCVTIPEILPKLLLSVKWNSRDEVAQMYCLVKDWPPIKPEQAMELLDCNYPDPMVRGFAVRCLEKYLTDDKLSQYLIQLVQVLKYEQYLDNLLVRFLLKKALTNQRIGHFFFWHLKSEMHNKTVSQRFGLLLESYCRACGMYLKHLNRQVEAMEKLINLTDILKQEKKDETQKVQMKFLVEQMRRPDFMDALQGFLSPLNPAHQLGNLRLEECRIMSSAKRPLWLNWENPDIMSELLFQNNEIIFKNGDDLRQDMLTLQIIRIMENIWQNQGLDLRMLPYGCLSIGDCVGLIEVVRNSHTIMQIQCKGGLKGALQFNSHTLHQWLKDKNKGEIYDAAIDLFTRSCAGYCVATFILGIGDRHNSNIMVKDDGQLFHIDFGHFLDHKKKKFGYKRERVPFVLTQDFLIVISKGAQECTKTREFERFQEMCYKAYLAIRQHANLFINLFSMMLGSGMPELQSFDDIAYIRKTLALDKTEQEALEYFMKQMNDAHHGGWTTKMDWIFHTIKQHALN
Chain of Cyclin-dependent kinase 8 (Homo sapiens) (P49336 whole entry): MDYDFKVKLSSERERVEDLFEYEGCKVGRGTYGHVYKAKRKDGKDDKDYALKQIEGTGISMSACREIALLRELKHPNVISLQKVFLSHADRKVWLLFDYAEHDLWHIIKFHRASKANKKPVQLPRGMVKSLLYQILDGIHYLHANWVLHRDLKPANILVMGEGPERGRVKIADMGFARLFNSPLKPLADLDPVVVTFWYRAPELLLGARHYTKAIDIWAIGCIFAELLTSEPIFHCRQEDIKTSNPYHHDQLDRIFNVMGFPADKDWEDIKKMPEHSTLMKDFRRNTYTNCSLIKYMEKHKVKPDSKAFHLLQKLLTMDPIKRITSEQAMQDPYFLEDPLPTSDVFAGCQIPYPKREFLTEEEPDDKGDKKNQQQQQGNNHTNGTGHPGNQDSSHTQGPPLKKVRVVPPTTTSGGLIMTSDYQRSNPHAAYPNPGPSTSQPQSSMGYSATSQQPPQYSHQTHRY
Chain of Uncharacterized serine/threonine-protein kinase SBK3 (Homo sapiens) (P0C264 whole entry): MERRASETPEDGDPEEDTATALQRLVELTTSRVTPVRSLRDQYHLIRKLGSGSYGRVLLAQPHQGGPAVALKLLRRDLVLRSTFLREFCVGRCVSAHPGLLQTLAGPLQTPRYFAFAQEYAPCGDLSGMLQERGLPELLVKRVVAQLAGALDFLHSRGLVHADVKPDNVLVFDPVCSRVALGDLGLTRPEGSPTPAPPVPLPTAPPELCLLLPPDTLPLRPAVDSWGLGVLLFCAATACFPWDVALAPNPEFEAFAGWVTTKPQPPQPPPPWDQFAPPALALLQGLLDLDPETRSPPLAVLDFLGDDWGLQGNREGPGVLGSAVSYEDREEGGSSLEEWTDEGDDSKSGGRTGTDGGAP
Chain of Proto-oncogene tyrosine-protein kinase receptor Ret (Homo sapiens), P07949 [M918T] (P07949 whole entry M918T): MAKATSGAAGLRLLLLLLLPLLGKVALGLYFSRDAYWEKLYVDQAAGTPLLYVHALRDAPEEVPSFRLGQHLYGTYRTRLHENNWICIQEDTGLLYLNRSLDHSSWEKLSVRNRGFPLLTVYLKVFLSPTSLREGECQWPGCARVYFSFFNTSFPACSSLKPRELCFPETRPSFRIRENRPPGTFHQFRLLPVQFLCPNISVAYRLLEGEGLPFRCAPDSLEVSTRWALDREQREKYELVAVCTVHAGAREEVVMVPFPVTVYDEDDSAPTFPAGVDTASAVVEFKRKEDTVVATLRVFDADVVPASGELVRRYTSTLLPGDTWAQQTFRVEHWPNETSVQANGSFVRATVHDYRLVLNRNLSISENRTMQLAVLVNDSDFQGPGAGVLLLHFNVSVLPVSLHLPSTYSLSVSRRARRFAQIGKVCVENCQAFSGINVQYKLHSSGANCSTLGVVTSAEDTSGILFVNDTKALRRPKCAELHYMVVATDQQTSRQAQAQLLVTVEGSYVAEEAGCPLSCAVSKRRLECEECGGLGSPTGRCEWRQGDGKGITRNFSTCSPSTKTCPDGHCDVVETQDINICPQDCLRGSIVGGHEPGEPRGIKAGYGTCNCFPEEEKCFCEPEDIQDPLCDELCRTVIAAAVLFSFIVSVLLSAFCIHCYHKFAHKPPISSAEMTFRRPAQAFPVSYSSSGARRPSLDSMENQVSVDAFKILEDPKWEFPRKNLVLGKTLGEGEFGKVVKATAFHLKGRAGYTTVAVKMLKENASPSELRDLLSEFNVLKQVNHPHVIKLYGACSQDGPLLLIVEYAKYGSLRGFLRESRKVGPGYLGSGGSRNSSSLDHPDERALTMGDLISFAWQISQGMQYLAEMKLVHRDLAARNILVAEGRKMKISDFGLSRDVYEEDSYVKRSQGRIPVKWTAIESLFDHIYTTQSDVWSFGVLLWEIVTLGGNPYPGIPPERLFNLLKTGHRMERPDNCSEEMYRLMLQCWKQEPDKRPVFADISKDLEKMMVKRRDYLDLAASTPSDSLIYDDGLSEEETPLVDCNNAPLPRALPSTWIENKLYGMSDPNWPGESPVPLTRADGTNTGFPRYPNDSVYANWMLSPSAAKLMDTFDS
Chain of Tyrosine-protein kinase Fyn (Homo sapiens) (P06241 2-537 limits assumed): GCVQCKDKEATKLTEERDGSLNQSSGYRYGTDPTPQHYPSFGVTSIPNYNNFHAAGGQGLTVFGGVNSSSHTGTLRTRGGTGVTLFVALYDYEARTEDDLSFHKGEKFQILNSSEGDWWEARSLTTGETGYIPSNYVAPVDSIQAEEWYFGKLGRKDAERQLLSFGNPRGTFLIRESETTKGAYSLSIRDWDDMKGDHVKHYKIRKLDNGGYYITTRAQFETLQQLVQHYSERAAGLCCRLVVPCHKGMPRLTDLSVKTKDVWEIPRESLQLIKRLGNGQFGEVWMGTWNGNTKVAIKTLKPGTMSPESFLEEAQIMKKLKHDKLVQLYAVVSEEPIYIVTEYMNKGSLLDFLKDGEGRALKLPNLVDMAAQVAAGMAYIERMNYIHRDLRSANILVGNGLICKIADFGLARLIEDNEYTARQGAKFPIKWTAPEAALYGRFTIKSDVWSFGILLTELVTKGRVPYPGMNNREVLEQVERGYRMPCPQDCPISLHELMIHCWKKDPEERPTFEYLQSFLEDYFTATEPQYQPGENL

CN(C)C(=O)Cn1cc(-c2nc(C3(c4ccc(-c5cnc(N)nc5)cc4)CC3)no2)cn1 [BI 0153]
inactive: residual activity [1] 76% | residual activity [2] 100% | residual activity [3] 86% | residual activity [4] 100% | residual activity [5] 100% | residual activity [6] 88% | residual activity [7] 66% | residual activity [8] 89% | residual activity [9] 81% | residual activity [10] 100% | residual activity [11] 85% | residual activity [12] 84% | residual activity [13] 91% | residual activity [14] 89% | residual activity [15] 82% | residual activity [16] 76% | residual activity [17] 99% | residual activity [18] 99% | residual activity [19] 100% | residual activity [20] 100% | residual activity [21] 99% | residual activity [22] 100% | residual activity [23] 68% | residual activity [24] 99% | residual activity [25] 80% | inhibition [26] -0.311% | inhibition [27] 7.97%

CN(C)C(=O)Cn1cc(-c2nc([C@@](C)(c3ccc(-c4cnc(N)nc4)cc3)C3CC3)no2)cn1 [BI 665915]
inactive: residual activity [1] 96% | residual activity [2] 89% | residual activity [3] 84% | residual activity [4] 93% | residual activity [5] 95% | residual activity [6] 71% | residual activity [7] 73% | residual activity [8] 100% | residual activity [9] 82% | residual activity [10] 86% | residual activity [11] 100% | residual activity [12] 85% | residual activity [13] 100% | residual activity [14] 89% | residual activity [15] 86% | residual activity [16] 96% | residual activity [17] 83% | residual activity [18] 93% | residual activity [19] 100% | residual activity [20] 100% | residual activity [21] 71% | residual activity [22] 93% | residual activity [23] 86% | residual activity [24] 100% | residual activity [25] 93% | inhibition [26] -7.53% | inhibition [27] 1.51%
